Measured values: US20230121197A1, “ANTIBODIES SPECIFICALLY BINDING THE CARBOXYMETHYLATED CATALYTIC SUBUNIT OF PROTEIN PHOSPHATASE 2A” (Medizinische Universität Wien, priority 2020, published 2023)

Tested on: LNCaP LCMT1 knockdown lines
Assay: Colony formation and cell viability (cell titer glo) in LCMT1 knockdown prostate cancer cells
Type: cell-based, human
Details: colony formation (20 uM, 10-12 days) and cell viability (96 hours)

SMILES: CNC(=O)c1ccc(N2C(=S)N(c3ccc(C#N)c(C(F)(F)F)c3)C(=O)C2(C)C)cc1F [enzalutamide]
- effect of LCMT1 knockdown on response to enzalutamide: decreased sensitivity
